The supplement of paper PMC10307832

Experiments:
Test in all cases: relative viability (nuclei count vs DMSO), 5 days (fraction); higher = more cells survive
OSI-027 + Tozasertib = compound: COc1cccc2cc(-c3nc([C@H]4CC[C@H](C(=O)O)CC4)n4ncnc(N)c34)[nH]c12 [OSI-027] + Cc1cc(Nc2cc(N3CCN(C)CC3)nc(Sc3ccc(NC(=O)C4CC4)cc3)n2)n[nH]1 [Tozasertib] (partner 0.1 µM)
Procedure, shortened: (§1)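 Values are medians from duplicate plates. Each reflects relative viability, defined as the nuclei count of treated wells over that of vehicle wells. Lung cancer cell lines in 1536-well plates were pin-tool dosed one day after seeding with one drug alone or with a fixed anchor-drug dose plus five library-drug doses (not always all listed) in √10 steps, then fixed, stained and imaged at 4× after 5 days.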

Alpelisib + Lapatinib = compound: Cc1nc(NC(=O)N2CCC[C@H]2C(N)=O)sc1-c1ccnc(C(C)(C)C(F)(F)F)c1 [Alpelisib] + CS(=O)(=O)CCNCc1ccc(-c2ccc3ncnc(Nc4ccc(OCc5cccc(F)c5)c(Cl)c4)c3c2)o1 [Lapatinib] (partner 2 µM)
Procedure, shortened: as §1

Vemurafenib + Luminespib = compound: CCCS(=O)(=O)Nc1ccc(F)c(C(=O)c2c[nH]c3ncc(-c4ccc(Cl)cc4)cc23)c1F [Vemurafenib] + CCNC(=O)c1noc(-c2cc(C(C)C)c(O)cc2O)c1-c1ccc(CN2CCOCC2)cc1 [Luminespib] (partner 0.01 µM)
Procedure, shortened: as §1

Vemurafenib + Olaparib = compound: CCCS(=O)(=O)Nc1ccc(F)c(C(=O)c2c[nH]c3ncc(-c4ccc(Cl)cc4)cc23)c1F [Vemurafenib] + O=C(c1cc(Cc2n[nH]c(=O)c3ccccc23)ccc1F)N1CCN(C(=O)C2CC2)CC1 [Olaparib] (partner 8 µM)
Procedure, shortened: as §1

## HCC-44
OSI-027 + Tozasertib; first compound 0.01 µM
  relative viability: 0.945
OSI-027 + Tozasertib; first compound 0.03162 µM
  relative viability: 0.859
OSI-027 + Tozasertib; first compound 0.1 µM
  relative viability: 1.05
OSI-027 + Tozasertib; first compound 0.3162 µM
  relative viability: 0.84
OSI-027 + Tozasertib; first compound 1 µM
  relative viability: 0.685
Alpelisib + Lapatinib; first compound 0.04 µM
  relative viability: 1.12
Alpelisib + Lapatinib; first compound 0.1265 µM
  relative viability: 1.02
Alpelisib + Lapatinib; first compound 0.4 µM
  relative viability: 1.05
Alpelisib + Lapatinib; first compound 1.265 µM
  relative viability: 0.877
Alpelisib + Lapatinib; first compound 4 µM
  relative viability: 0.893
Vemurafenib + Luminespib; first compound 0.03162 µM
  relative viability: 0.915
Vemurafenib + Luminespib; first compound 0.1 µM
  relative viability: 1.19
Vemurafenib + Luminespib; first compound 1 µM
  relative viability: 1.07
Vemurafenib + Olaparib; first compound 0.03162 µM
  relative viability: 0.985
Vemurafenib + Olaparib; first compound 0.1 µM
  relative viability: 0.992
Vemurafenib + Olaparib; first compound 0.3162 µM
  relative viability: 0.992
Vemurafenib + Olaparib; first compound 1 µM
  relative viability: 0.99

## HCC-78
OSI-027 + Tozasertib; first compound 0.01 µM
  relative viability: 0.506
OSI-027 + Tozasertib; first compound 0.03162 µM
  relative viability: 0.374
OSI-027 + Tozasertib; first compound 0.1 µM
  relative viability: 0.435
OSI-027 + Tozasertib; first compound 0.3162 µM
  relative viability: 0.334
OSI-027 + Tozasertib; first compound 1 µM
  relative viability: 0.241
Alpelisib + Lapatinib; first compound 0.04 µM
  relative viability: 0.619
Alpelisib + Lapatinib; first compound 0.1265 µM
  relative viability: 0.39
Alpelisib + Lapatinib; first compound 0.4 µM
  relative viability: 1.07
Alpelisib + Lapatinib; first compound 1.265 µM
  relative viability: 0.659
Alpelisib + Lapatinib; first compound 4 µM
  relative viability: 0.413
Vemurafenib + Olaparib; first compound 0.03162 µM
  relative viability: 0.73
Vemurafenib + Olaparib; first compound 0.1 µM
  relative viability: 0.784
Vemurafenib + Olaparib; first compound 0.3162 µM
  relative viability: 1.13
Vemurafenib + Olaparib; first compound 1 µM
  relative viability: 0.881

## HCC-366
OSI-027 + Tozasertib; first compound 0.01 µM
  relative viability: 0.13
OSI-027 + Tozasertib; first compound 0.03162 µM
  relative viability: 0.113
OSI-027 + Tozasertib; first compound 0.1 µM
  relative viability: 0.0867
OSI-027 + Tozasertib; first compound 0.3162 µM
  relative viability: 0.128
OSI-027 + Tozasertib; first compound 1 µM
  relative viability: 0.0744
Alpelisib + Lapatinib; first compound 0.04 µM
  relative viability: 1.04
Alpelisib + Lapatinib; first compound 0.1265 µM
  relative viability: 1.02
Alpelisib + Lapatinib; first compound 0.4 µM
  relative viability: 1.14
Alpelisib + Lapatinib; first compound 1.265 µM
  relative viability: 0.824
Alpelisib + Lapatinib; first compound 4 µM
  relative viability: 0.535
Vemurafenib + Olaparib; first compound 0.03162 µM
  relative viability: 0.343
Vemurafenib + Olaparib; first compound 0.1 µM
  relative viability: 0.304
Vemurafenib + Olaparib; first compound 1 µM
  relative viability: 0.388

## HCC-827
OSI-027 + Tozasertib; first compound 0.01 µM
  relative viability: 0.447
OSI-027 + Tozasertib; first compound 0.03162 µM
  relative viability: 0.478
OSI-027 + Tozasertib; first compound 0.1 µM
  relative viability: 0.456
OSI-027 + Tozasertib; first compound 0.3162 µM
  relative viability: 0.343
OSI-027 + Tozasertib; first compound 1 µM
  relative viability: 0.363
Alpelisib + Lapatinib; first compound 0.04 µM
  relative viability: 0.19
Alpelisib + Lapatinib; first compound 0.1265 µM
  relative viability: 0.192
Alpelisib + Lapatinib; first compound 0.4 µM
  relative viability: 0.211
Alpelisib + Lapatinib; first compound 1.265 µM
  relative viability: 0.179
Alpelisib + Lapatinib; first compound 4 µM
  relative viability: 0.188
Vemurafenib + Luminespib; first compound 0.03162 µM
  relative viability: 0.654
Vemurafenib + Luminespib; first compound 0.3162 µM
  relative viability: 0.537
Vemurafenib + Luminespib; first compound 1 µM
  relative viability: 0.669
Vemurafenib + Olaparib; first compound 0.03162 µM
  relative viability: 0.624
Vemurafenib + Olaparib; first compound 0.3162 µM
  relative viability: 0.65
Vemurafenib + Olaparib; first compound 1 µM
  relative viability: 0.632

## HOP-62
OSI-027 + Tozasertib; first compound 0.01 µM
  relative viability: 0.382
OSI-027 + Tozasertib; first compound 0.03162 µM
  relative viability: 0.39
OSI-027 + Tozasertib; first compound 0.1 µM
  relative viability: 0.369
OSI-027 + Tozasertib; first compound 0.3162 µM
  relative viability: 0.442
OSI-027 + Tozasertib; first compound 1 µM
  relative viability: 0.277
Alpelisib + Lapatinib; first compound 0.04 µM
  relative viability: 1.03
Alpelisib + Lapatinib; first compound 0.1265 µM
  relative viability: 0.775
Alpelisib + Lapatinib; first compound 0.4 µM
  relative viability: 1.02
Alpelisib + Lapatinib; first compound 1.265 µM
  relative viability: 0.826
Alpelisib + Lapatinib; first compound 4 µM
  relative viability: 0.794
Vemurafenib + Luminespib; first compound 0.03162 µM
  relative viability: 0.902
Vemurafenib + Luminespib; first compound 0.1 µM
  relative viability: 0.843
Vemurafenib + Luminespib; first compound 0.3162 µM
  relative viability: 0.931
Vemurafenib + Luminespib; first compound 1 µM
  relative viability: 0.971
Vemurafenib + Olaparib; first compound 0.03162 µM
  relative viability: 0.38
Vemurafenib + Olaparib; first compound 0.1 µM
  relative viability: 0.388
Vemurafenib + Olaparib; first compound 0.3162 µM
  relative viability: 0.412
Vemurafenib + Olaparib; first compound 1 µM
  relative viability: 0.438

## IA-LM
Alpelisib + Lapatinib; first compound 0.04 µM
  relative viability: 0.977
Alpelisib + Lapatinib; first compound 0.1265 µM
  relative viability: 0.802
Alpelisib + Lapatinib; first compound 0.4 µM
  relative viability: 0.842
Alpelisib + Lapatinib; first compound 1.265 µM
  relative viability: 0.708
Alpelisib + Lapatinib; first compound 4 µM
  relative viability: 0.74
Vemurafenib + Olaparib; first compound 0.03162 µM
  relative viability: 0.67
Vemurafenib + Olaparib; first compound 0.1 µM
  relative viability: 0.818
Vemurafenib + Olaparib; first compound 0.3162 µM
  relative viability: 0.78
Vemurafenib + Olaparib; first compound 1 µM
  relative viability: 0.721

## LC-2-ad
OSI-027 + Tozasertib; first compound 0.01 µM
  relative viability: 0.464
OSI-027 + Tozasertib; first compound 0.03162 µM
  relative viability: 0.4
OSI-027 + Tozasertib; first compound 0.1 µM
  relative viability: 0.449
OSI-027 + Tozasertib; first compound 0.3162 µM
  relative viability: 0.443
OSI-027 + Tozasertib; first compound 1 µM
  relative viability: 0.397
Alpelisib + Lapatinib; first compound 0.04 µM
  relative viability: 0.958
Alpelisib + Lapatinib; first compound 0.1265 µM
  relative viability: 1.01
Alpelisib + Lapatinib; first compound 0.4 µM
  relative viability: 0.975
Alpelisib + Lapatinib; first compound 1.265 µM
  relative viability: 0.645
Alpelisib + Lapatinib; first compound 4 µM
  relative viability: 0.542
Vemurafenib + Luminespib; first compound 0.03162 µM
  relative viability: 0.887
Vemurafenib + Luminespib; first compound 0.1 µM
  relative viability: 0.978
Vemurafenib + Luminespib; first compound 1 µM
  relative viability: 1.05
Vemurafenib + Olaparib; first compound 0.03162 µM
  relative viability: 0.691
Vemurafenib + Olaparib; first compound 0.1 µM
  relative viability: 0.645
Vemurafenib + Olaparib; first compound 0.3162 µM
  relative viability: 0.763
Vemurafenib + Olaparib; first compound 1 µM
  relative viability: 0.69

## LCLC-97TM1
OSI-027 + Tozasertib; first compound 0.01 µM
  relative viability: 0.299
OSI-027 + Tozasertib; first compound 0.03162 µM
  relative viability: 0.192
OSI-027 + Tozasertib; first compound 0.1 µM
  relative viability: 0.228
OSI-027 + Tozasertib; first compound 0.3162 µM
  relative viability: 0.18
OSI-027 + Tozasertib; first compound 1 µM
  relative viability: 0.0982
Alpelisib + Lapatinib; first compound 0.04 µM
  relative viability: 0.75
Alpelisib + Lapatinib; first compound 0.1265 µM
  relative viability: 0.854
Alpelisib + Lapatinib; first compound 0.4 µM
  relative viability: 0.656
Alpelisib + Lapatinib; first compound 1.265 µM
  relative viability: 0.686
Alpelisib + Lapatinib; first compound 4 µM
  relative viability: 0.387
Vemurafenib + Luminespib; first compound 0.03162 µM
  relative viability: 0.811
Vemurafenib + Luminespib; first compound 0.1 µM
  relative viability: 0.768
Vemurafenib + Luminespib; first compound 0.3162 µM
  relative viability: 0.807
Vemurafenib + Luminespib; first compound 1 µM
  relative viability: 0.817
Vemurafenib + Olaparib; first compound 0.1 µM
  relative viability: 0.416
Vemurafenib + Olaparib; first compound 0.3162 µM
  relative viability: 0.353
Vemurafenib + Olaparib; first compound 1 µM
  relative viability: 0.269

## LCLC-103H
OSI-027 + Tozasertib; first compound 0.01 µM
  relative viability: 0.49
OSI-027 + Tozasertib; first compound 0.03162 µM
  relative viability: 0.424
OSI-027 + Tozasertib; first compound 0.1 µM
  relative viability: 0.489
OSI-027 + Tozasertib; first compound 0.3162 µM
  relative viability: 0.44
OSI-027 + Tozasertib; first compound 1 µM
  relative viability: 0.333
Vemurafenib + Luminespib; first compound 0.03162 µM
  relative viability: 0.914
Vemurafenib + Luminespib; first compound 0.1 µM
  relative viability: 0.805
Vemurafenib + Luminespib; first compound 0.3162 µM
  relative viability: 0.899
Vemurafenib + Luminespib; first compound 1 µM
  relative viability: 0.967
Vemurafenib + Olaparib; first compound 0.03162 µM
  relative viability: 0.644
Vemurafenib + Olaparib; first compound 0.1 µM
  relative viability: 0.71
Vemurafenib + Olaparib; first compound 0.3162 µM
  relative viability: 0.742
Vemurafenib + Olaparib; first compound 1 µM
  relative viability: 0.797
